This assay deals with Puccinia recondita tritici = Puccinia triticina (PUCCRT). Put plainly: Fungicidal activity vs. wheat leaf rust. The format is in vivo, Puccinia recondita tritici on wheat (variety Yuma). The note with it: % disease control @ 50 ppm, wheat seedlings sprayed, inoculated the following day, severity evaluated 7-9 days later, read-out: Puccinia Rating. The source says: D. Evaluation of Fungicidal Activity Vs. Leaf Rust (Causal Agent Puccinia recondita tritici=Puccinia triticina; Bayer code PUCCRT). […] Each pot contained 3-8 seedlings. These plants were sprayed until wet with the formulated test compounds. The compounds were formulated at 50 ppm in 10 vol. % acetone plus 90 vol. % Triton X water (deionized water 99.99 wt %+0.01 wt % Triton X100), giving a “formulated test compound.” Formulated test compounds were applied to plants using a turn table sprayer fitted with two opposing air atomization nozzles which delivered approximately 1500 L/ha of spray volume. On the following day, the leaves were inoculated with an aqueous spore suspension of Puccinia recondita tritici and the plants were kept in high humidity overnight to permit spores to germinate and infect the leaf. The plants were then transferred to a greenhouse until disease developed on untreated control plants. Disease severity was evaluated 7-9 days later, depending on the speed of disease development. In each case of Table 3, the Puccinia rating scale is as follows: […]

Consider twelve compounds from patent US9556143B2, “Metalloenzyme inhibitor compounds” (Viamet Pharmaceuticals, Inc., priority 2011, dated 2017).

For the compound `OC(Cn1cnnn1)(c1ccc(F)cc1F)C(F)(F)c1ccc(Cc2ccc(C(F)(F)F)cc2)cn1` (stereo not drawn) [Compound 73, 2-(2,4-Difluorophenyl)-1,1-difluoro-3-(1H-tetrazol-1-yl)-1-(5-(4-(trifluoromethyl)benzyl)pyridin-2-yl)propan-2-ol], the pest or weed control at 50 ppm is 80 to 100%.
Then `OC(Cn1cnnn1)(c1ccc(F)cc1F)C(F)(F)c1ccc(Cc2ccccc2)cn1` (stereo not drawn) [Compound 75, 1-(5-Benzylpyridin-2-yl)-2-(2,4-difluorophenyl)-1,1-difluoro-3-(1H-tetrazol-1-yl)propan-2-ol], with 80 to 100%; and `OC(Cn1cnnn1)(c1ccc(F)cc1F)C(F)(F)c1ccc(Cc2ccc(OC(F)(F)F)cc2)cn1` (stereo not drawn) [Compound 76, 2-(2,4-Difluorophenyl)-1,1-difluoro-3-(1H-tetrazol-1-yl)-1-(5-(4-(trifluoromethoxy)benzyl)pyridin-2-yl)propan-2-ol], with 80 to 100%.
Then `OC(Cn1cnnn1)(c1ccc(F)cc1F)C(F)(F)c1ccc(Cc2ccc(Cl)cc2)cn1` (stereo not drawn) [Compound 77, 1-(5-(4-Chlorobenzyl)pyridin-2-yl)-2-(2,4-difluorophenyl)-1,1-difluoro-3-(1H-tetrazol-1-yl)propan-2-ol], with 80 to 100%.
With `N#Cc1ccc(OCc2ccc(C(F)(F)C(O)(Cn3cnnn3)c3ccc(F)cc3F)nc2)cc1` (stereo not drawn) [Compound 79, 4-((6-(2-(2,4-Difluorophenyl)-1,1-difluoro-2-hydroxy-3-(1H-tetrazol-1-yl)propyl)pyridin-3-yl)methoxy)benzonitrile], the pest or weed control at 50 ppm lay within 80 to 100%.
Then `OC(Cc1cnco1)(c1ccc(F)cc1F)C(F)(F)c1ccc(Br)cn1` (stereo not drawn) [Compound 83, 1-(5-Bromopyridin-2-yl)-2-(2,4-difluorophenyl)-1,1-difluoro-3-(oxazol-5-yl)propan-2-ol], with 80 to 100%; and `N#Cc1ccc(OCc2ccc(C(F)(F)C(O)(Cn3cnnn3)c3ccc(F)cc3F)nc2)c(F)c1` (stereo not drawn) [Compound 88, 4-((6-(2-(2,4-difluorophenyl)-1,1-difluoro-2-hydroxy-3-(1H-tetrazol-1-yl)propyl)pyridin-3-yl)methoxy)-3-fluorobenzonitrile], with 80 to 100%; and `N#Cc1cccc(OCc2ccc(C(F)(F)C(O)(Cn3cnnn3)c3ccc(F)cc3F)nc2)c1F` (stereo not drawn) [Compound 89, 3-((6-(2-(2,4-difluorophenyl)-1,1-difluoro-2-hydroxy-3-(1H-tetrazol-1-yl)propyl)pyridin-3-yl)methoxy)-2-fluorobenzonitrile], with 80 to 100%.
Then `N#Cc1ccc(SCc2ccc(C(F)(F)C(O)(Cn3cnnn3)c3ccc(F)cc3F)nc2)c(F)c1` (stereo not drawn) [Compound 90, 4-(((6-(2-(2,4-difluorophenyl)-1,1-difluoro-2-hydroxy-3-(1H-tetrazol-1-yl)propyl)pyridin-3-yl)methyl)thio)-3-fluorobenzonitrile], with 40 to 59%; and `OC(Cn1cnnn1)(c1ccc(F)cc1F)C(F)(F)c1ccc(COC(F)F)cn1` (stereo not drawn) [Compound 92, 1-(5-((difluoromethoxy)methyl)pyridin-2-yl)-2-(2,4-difluorophenyl)-1,1-difluoro-3-(1H-tetrazol-1-yl)propan-2-ol], with 80 to 100%.
Then `OC(Cn1cnnn1)(c1ccc(F)cc1F)C(F)(F)c1ccc(-c2ccc(Cl)cn2)cn1` (stereo not drawn) [Compound 93, 1-(5-chloro-[2,3′-bipyridin]-6′-yl)-2-(2,4-difluorophenyl)-1,1-difluoro-3-(1H-tetrazol-1-yl)propan-2-ol], with 80 to 100%; and `OC(Cn1cnnn1)(c1ccc(F)cc1F)C(F)(F)c1ccc(-c2ccc(C(F)(F)F)cn2)cn1` (stereo not drawn) [Compound 94, 2-(2,4-difluorophenyl)-1,1-difluoro-3-(1H-tetrazol-1-yl)-1-(5-(trifluoromethyl)-[2,3′-bipyridin]-6′-yl)propan-2-ol], with 80 to 100%.
